According to US11299501B2 (BRISTOL-MYERS SQUIBB COMPANY, priority 2017, dated 2022):

Assays:
Type in all cases: cell-based
[1] = target: T1, human TLR7 (Homo sapiens, UniProt Q9NYK1); assay: TLR7 inhibition reporter assay (HEK-Blue SEAP); conditions: cells overexpressing human TLR7, SEAP reporter, stimulated with gardiquimod 7.5 μM, 22 hour incubation
T1 construct: host or cells: HEK-Blue cells
T1 sequence (Q9NYK1 27-1049): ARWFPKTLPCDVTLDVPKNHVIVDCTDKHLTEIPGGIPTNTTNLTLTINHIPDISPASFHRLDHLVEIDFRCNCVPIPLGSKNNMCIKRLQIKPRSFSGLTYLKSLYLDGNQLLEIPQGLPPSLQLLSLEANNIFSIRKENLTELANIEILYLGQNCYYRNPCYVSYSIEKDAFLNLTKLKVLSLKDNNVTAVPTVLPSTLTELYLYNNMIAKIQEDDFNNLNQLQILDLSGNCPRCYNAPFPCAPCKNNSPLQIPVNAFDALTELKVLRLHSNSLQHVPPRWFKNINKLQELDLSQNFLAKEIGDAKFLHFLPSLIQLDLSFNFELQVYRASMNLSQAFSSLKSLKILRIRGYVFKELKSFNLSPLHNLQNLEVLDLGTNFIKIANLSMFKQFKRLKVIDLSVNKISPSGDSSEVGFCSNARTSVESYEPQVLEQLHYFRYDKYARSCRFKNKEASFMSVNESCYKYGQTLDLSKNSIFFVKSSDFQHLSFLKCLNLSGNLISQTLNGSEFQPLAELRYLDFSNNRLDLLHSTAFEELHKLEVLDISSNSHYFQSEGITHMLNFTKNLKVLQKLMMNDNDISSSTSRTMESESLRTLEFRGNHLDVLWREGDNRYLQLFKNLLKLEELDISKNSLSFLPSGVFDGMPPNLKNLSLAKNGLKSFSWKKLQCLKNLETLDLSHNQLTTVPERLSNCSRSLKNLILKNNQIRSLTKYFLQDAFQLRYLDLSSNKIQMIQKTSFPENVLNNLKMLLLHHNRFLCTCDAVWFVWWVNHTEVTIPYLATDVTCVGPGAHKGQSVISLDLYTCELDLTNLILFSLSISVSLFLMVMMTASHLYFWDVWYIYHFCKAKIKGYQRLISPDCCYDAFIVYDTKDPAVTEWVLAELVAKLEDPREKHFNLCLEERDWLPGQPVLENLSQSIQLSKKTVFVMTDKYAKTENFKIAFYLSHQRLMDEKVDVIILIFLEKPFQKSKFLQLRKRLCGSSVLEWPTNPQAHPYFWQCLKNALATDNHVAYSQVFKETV
Method: (§1) TLR7/8/9 Inhibition Reporter Assays
(§2) […] (Invivogen) overexpressing human TLR7, TLR8 or TLR9 receptors were used for screening inhibitors of these receptors using an inducible SEAP (secreted embryonic alkaline phosphatase) reporter gene under the control of the IFN-β minimal promoter fused to five NF-κB and AP-1-binding sites. Briefly, cells are seeded into Greiner 384 well plates (15000 cells per well for TLR7, 20,000 for TLR8 and 25,000 for TLR9) and then treated with test compounds in DMSO to yield a final dose response concentration range of 0.05 nM-50 μM. After a 30 minute compound pre-treatment at room temperature, the cells are then stimulated with a TLR7 ligand (gardiquimod at a final concentration of 7.5 μM). TLR8 ligand (R848 at a final concentration of 15.9 μM) or TLR9 ligand (ODN2006 at a final concentration of 5 nM) to activate NF-κB and AP-1 which induce the production of SEAP. After a 22 hour incubation at 37° C., 5% CO2, SEAP levels are determined with the addition of HEK-Blue™ Detection reagent (Invivogen), a cell culture medium that allows for detection of SEAP, according to manufacturer's specifications. The percent inhibition is determined as the % reduction in the HEK-Blue signal present in wells treated with agonist plus DMSO alone compared to wells treated with a known inhibitor.

[2] = target: T2, human TLR8 (Homo sapiens, UniProt Q9NR97); assay: TLR8 inhibition reporter assay (HEK-Blue SEAP); conditions: cells overexpressing human TLR8, SEAP reporter, stimulated with R848 15.9 μM, 22 hour incubation
T2 construct: host or cells: HEK-Blue cells
T2 sequence (Q9NR97 27-1041): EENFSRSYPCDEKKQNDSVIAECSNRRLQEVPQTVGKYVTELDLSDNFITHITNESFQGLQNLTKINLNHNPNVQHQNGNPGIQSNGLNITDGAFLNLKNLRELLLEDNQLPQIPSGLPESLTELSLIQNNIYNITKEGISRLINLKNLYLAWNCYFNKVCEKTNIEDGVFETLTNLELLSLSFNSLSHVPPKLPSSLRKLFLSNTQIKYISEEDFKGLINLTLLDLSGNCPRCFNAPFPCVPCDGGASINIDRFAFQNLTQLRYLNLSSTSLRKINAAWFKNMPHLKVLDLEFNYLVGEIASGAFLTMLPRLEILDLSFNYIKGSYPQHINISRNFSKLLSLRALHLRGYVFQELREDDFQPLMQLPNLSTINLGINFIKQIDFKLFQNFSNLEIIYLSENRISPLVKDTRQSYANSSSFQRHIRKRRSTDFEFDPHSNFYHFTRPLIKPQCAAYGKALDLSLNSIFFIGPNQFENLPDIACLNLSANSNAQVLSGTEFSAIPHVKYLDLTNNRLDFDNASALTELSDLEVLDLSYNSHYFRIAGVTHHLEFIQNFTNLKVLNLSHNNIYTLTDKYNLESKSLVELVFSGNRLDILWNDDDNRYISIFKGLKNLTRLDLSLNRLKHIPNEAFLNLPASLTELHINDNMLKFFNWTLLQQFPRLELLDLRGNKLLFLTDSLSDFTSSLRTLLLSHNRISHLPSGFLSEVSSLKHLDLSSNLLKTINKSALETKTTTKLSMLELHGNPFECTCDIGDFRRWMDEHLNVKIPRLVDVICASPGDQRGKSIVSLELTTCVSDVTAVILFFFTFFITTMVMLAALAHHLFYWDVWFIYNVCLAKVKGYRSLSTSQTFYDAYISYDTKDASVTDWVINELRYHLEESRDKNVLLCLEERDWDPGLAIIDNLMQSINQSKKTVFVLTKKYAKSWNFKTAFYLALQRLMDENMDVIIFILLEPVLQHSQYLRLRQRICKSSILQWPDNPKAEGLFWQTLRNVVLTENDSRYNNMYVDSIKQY
Method: as §1, §2

[3] = target: T3, human TLR9 (Homo sapiens, UniProt Q9NR96); assay: TLR9 inhibition reporter assay (HEK-Blue SEAP); conditions: cells overexpressing human TLR9, SEAP reporter, stimulated with ODN2006 5 nM, 22 hour incubation
T3 construct: host or cells: HEK-Blue cells
T3 sequence (Q9NR96 26-1032): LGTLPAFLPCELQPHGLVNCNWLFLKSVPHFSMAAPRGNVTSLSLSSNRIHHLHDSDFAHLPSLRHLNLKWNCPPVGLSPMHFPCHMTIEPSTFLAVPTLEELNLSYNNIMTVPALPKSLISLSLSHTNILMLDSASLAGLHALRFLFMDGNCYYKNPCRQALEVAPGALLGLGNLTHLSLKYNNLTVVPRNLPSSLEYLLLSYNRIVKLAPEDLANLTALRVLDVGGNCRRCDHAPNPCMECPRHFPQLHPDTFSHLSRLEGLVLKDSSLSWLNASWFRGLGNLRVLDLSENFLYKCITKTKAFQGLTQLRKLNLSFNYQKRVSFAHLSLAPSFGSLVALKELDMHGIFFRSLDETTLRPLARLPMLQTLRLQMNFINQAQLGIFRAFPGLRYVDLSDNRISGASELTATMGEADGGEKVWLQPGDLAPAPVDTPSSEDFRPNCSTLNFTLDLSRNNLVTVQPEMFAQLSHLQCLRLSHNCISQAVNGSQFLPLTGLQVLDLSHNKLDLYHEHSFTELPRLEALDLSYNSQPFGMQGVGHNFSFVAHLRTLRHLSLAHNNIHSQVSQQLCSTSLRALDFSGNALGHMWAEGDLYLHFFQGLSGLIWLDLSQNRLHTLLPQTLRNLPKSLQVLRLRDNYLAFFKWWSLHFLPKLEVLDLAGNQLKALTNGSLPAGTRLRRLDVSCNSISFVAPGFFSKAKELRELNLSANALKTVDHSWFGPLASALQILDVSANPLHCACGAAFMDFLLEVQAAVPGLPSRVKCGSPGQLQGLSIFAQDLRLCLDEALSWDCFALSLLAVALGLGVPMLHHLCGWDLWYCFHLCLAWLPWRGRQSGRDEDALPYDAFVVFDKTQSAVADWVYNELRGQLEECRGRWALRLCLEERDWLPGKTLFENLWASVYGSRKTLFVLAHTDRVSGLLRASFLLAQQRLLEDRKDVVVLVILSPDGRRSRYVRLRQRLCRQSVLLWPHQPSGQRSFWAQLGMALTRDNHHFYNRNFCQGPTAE
Method: as §1, §2

Row | IC50 [1] | IC50 [2] | IC50 [3] | SMILES
1 | < 100 nM | < 100 nM | 1000 to 50000 nM | Cc1c(-c2[nH]c3cnc(C4CCN(C5CCOCC5)CC4)nc3c2C(C)C)cn2ncnc2c1C [Example 13, 6-(7-isopropyl-2-(1-(tetrahydro-2H-pyran-4-yl)piperidin-4-yl)-5H-pyrrolo[3,2-d]pyrimidin-6-yl)-7,8-dimeihyl-[1,2,4]triazolo[1,5-a]pyridine]
2 | < 100 nM | < 100 nM | 1000 to 50000 nM | COc1cc(-c2[nH]c3cnc(C4CCN(C5COC5)CC4)nc3c2C(C)C)cn2ncnc12 [Example 14, 6-(7-isopropyl-2-(1-(oxetan-3-yl)piperidin-4-yl)-5H-pyrrolo[3,2-d]pyrimidin-6-yl)-8-methoxy-[1,2,4]triazolo[1,5-a]pyridine]
3 | < 100 nM | < 100 nM | 1000 to 50000 nM | COc1cc(-c2[nH]c3cnc(C4CCN(CC(C)(C)O)CC4)nc3c2C(C)C)cn2ncnc12 [Example 15, 1-(4-(7-isopropyl-6-(8-methoxy-[1,2,4]triazolo[1,5-a]pyridin-6-yl)-5H-pyrrolo[3,2-d]pyrimidin-2-yl)piperidin-1-yl)-2-methylpropan-2-ol]
4 | < 100 nM | 100 to 1000 nM | 100 to 1000 nM | COc1ccc(-c2[nH]c3cnc(C4CCN(C(=O)CN(C)C)CC4)nc3c2C(C)C)cc1OC [Example 18, 1-(4-(6-(3,4-dimethoxyphenyl)-7-isopropyl-5H-pyrrolo[3,2-d]pyrimidin-2-yl)piperidin-1-yl)-2-(dimethylanino)ethan-1-one]
5 | < 100 nM | < 100 nM | 1000 to 50000 nM | Cc1cc(-c2[nH]c3cnc(C4CCN(C5COC5)CC4)nc3c2C(C)C)cn2ncnc12 [Example 24, 6-(7-isopropyl-2-(1-(oxetan-3-yl)piperidin-4-yl)-5H-pyrrolo[3,2-d]pyrimidin-6-yl)-8-methyl-[1,2,4]triazolo[1,5-a]pyridine]

Continued, molecule first:

Row | SMILES | IC50 [1] | IC50 [2] | IC50 [3]
6 | COc1ccc(-c2[nH]c3cnc(C4CCNCC4)nc3c2C(C)C)cc1OC [Example 17, 6-(3,4-dimethoxyphenyl)-7-isopropyl-2-(piperidin-4-yl)-5H-pyrrolo[3,2-d]pyrimidine] | < 100 nM | < 100 nM | 100 to 1000 nM
7 | Cc1c(-c2[nH]c3cnc(C4CCN(C5COC5)CC4)nc3c2C(C)C)cn2ncnc2c1C [Example 19, 6-(7-isopropyl-2-(1-(oxetan-3-yl)piperidin-4-yl)-5H-pyrrolo[3,2-d]pyrimidin-6-yl)-7,8-dimethyl-[1,2,4]triazolo[1,5-a]pyridine] | < 100 nM | < 100 nM | 1000 to 50000 nM
8 | Cc1cc(-c2[nH]c3cnc(C4CCN(CC(C)(C)O)CC4)nc3c2C(C)C)cn2ncnc12 [Example 20, 1-(4-(7-isopropyl-6-(8-methyl-[1,2,4]triazolo[1,5-a]pyridin-6-yl)-5H-pyrrolo[3,2-d]pyrimidin-2-yl)piperidin-1-yl)-2-methylpropan-2-ol] | < 100 nM | < 100 nM | 1000 to 50000 nM
9 | Cc1cc(-c2[nH]c3cnc(C4CCN(C5CCOCC5)CC4)nc3c2C(C)C)cn(C)c1=O [Example 21, 5-(7-isopropyl-2-(1-(tetrahydro-2H-pyran-4-yl)piperidin-4-yl)-5H-pyrrolo[3,2-d]pyrimidin-6-yl)-1,3-dimethylpyridin-2(1H)-one] | < 100 nM | < 100 nM | 100 to 1000 nM
10 | COc1ccc(-c2[nH]c3cnc(C4CCN(C5CCN(C(C)C)CC5)CC4)nc3c2C(C)C)cc1OC [Example 22, 6-(3,4-dimedioxyphenyl)-7-isopropyl-2-(1′-isopropyl-[1,4′-bipiperidin]-4-yl)-5H-pyrrolo[3,2-d]pyrimidine] | < 100 nM | < 100 nM | 100 to 1000 nM
11 | CCc1c(-c2ccnc(C)c2)[nH]c2cnc(C3CCN(C4CCN(C(C)C)CC4)CC3)nc12 [Example 23, 7-ethyl-2-(1′-isopropyl-[1,4′-bipiperidin]-4-yl)-6-(2-methylpyridin-4-yl)-5H-pyrrolo[3,2-d]pyrimidine] | 100 to 1000 nM | < 100 nM | 100 to 1000 nM
12 | CCc1c(-c2ccnc3[nH]ncc23)[nH]c2cnc(C3CCN(C4CCN(C(C)C)CC4)CC3)nc12 [Example 25, 4-(7-ethyl-2-(1′-isopropyl-[1,4′-bipiperidin]-4-yl)-5H-pyrrolo[3,2-d]pyrimidin-6-yl)-1H-pyrazolo[3,4-b]pyridine] | 100 to 1000 nM | 100 to 1000 nM | 100 to 1000 nM
